From patent publication US10023558B2, “Compounds” (CHIESI FARMACEUTICI S.P.A., priority 2016, dated 2018)
pIC50: −log10 of the molar value.

Target: T1, human neutrophil elastase (HNE) (Homo sapiens, UniProt P08246)
T1 construct: purchased Sigma E8140
T1 sequence (P08246 30-247 limits assumed): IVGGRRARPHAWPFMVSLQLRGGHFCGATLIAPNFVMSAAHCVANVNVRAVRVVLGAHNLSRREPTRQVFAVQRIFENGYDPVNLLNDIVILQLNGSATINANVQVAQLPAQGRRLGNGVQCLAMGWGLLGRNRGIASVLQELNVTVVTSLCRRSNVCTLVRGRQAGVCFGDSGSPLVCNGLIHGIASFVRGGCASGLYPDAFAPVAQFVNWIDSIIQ
Test: HNE Enzyme Assay (fluorogenic peptide substrate MeOSuc-Ala-Ala-Pro-Val-AMC)
Type: biochemical
Conditions: human leukocyte elastase 0.00072 U/mL, substrate 100 μM, 25° C., 30 minutes, at least two separate experiments; read-out: HNE inhibition (IC50 values)
Procedure: Compounds of this invention were tested for potency in a human neutrophil elastase (HNE) enzyme activity assay.
Assays were performed in 96-well plates in a total assay volume of 100 μL. The final concentration of elastase enzyme (human leukocyte elastase, Sigma E8140) was 0.00072 U/mL. The peptide substrate (MeOSuc-Ala-Ala-Pro-Val-AMC, Calbiochem #324740) was used at a final concentration of 100 μM. The final concentration of DMSO was 1% in the assay buffer (0.05M Tris.HCl, 0.1M NaCl, 0.1M CaCl2, 0.0005% Brij-35, pH 7.5). The enzymatic reaction was started by addition of the enzyme and incubated at 25° C. for 30 minutes. After incubation, the reaction was stopped by addition of soybean trypsin inhibitor (Sigma T9003) at a final concentration of 50 μg/well. Fluorescence was measured using a Molecular Devices fluorescence plate reader using 380 nm excitation and 460 nm emission wavelengths.
A concentration response to each compound was performed and the effect of compound in each experiment was expressed as a percentage inhibition of the control enzyme fluorescence. Dose response curves were plotted and compound potency (IC50) was determined. Compounds were tested in at least two separate experiments.

## Cc1c(-c2ccnn2-c2ccc(C#N)cc2)n(C(=O)NC(C)c2nc(C[N+](C)(C)C)cs2)c(=O)n1-c1cccc(C(F)(F)F)c1 (racemic) [Example 85, ±[2-(1-{[5-[2-(4-Cyano-phenyl)-2H-pyrazol-3-yl]-4-methyl-2-oxo-3-(3-trifluoromethyl-phenyl)-2,3-dihydro-imidazole-1-carbonyl]-amino}-ethyl)-thiazol-4-ylmethyl]-trimethyl-ammonium benzene sulfonate]
  pIC50: > 9.00

## Cc1c(-c2ccnn2-c2ccc(C#N)cc2)n(C(=O)N[C@H]2CC[C@H](CN(C)C)CC2)c(=O)n1-c1cccc(C(F)(F)F)c1 [Example 1, 5-[2-(4-Cyano-phenyl)-2H-pyrazol-3-yl]-4-methyl-2-oxo-3-(3-trifluoromethyl-phenyl)-2,3-dihydro-imidazole-1-carboxylic acid trans-(4-dimethylaminomethyl-cyclohexyl)-amide]
  pIC50: > 9.00

## Cc1c(-c2ccnn2-c2ccc(C#N)cc2)n(C(=O)N[C@H]2CCC[C@@H]2OCc2ccccc2)c(=O)n1-c1cccc(C(F)(F)F)c1 [Example 2, 5-[2-(4-Cyano-phenyl)-2H-pyrazol-3-yl]-4-methyl-2-oxo-3-(3-trifluoromethyl-phenyl)-2,3-dihydro-imidazole-1-carboxylic acid ((1S,2S)-2-benzyloxy-cyclopentyl)-amide]
  pIC50: 8.00 to 9.00

## Cc1c(-c2ccnn2-c2ccc(C#N)cc2)n(C(=O)NC2CCN(C(=O)OCc3ccccc3)CC2)c(=O)n1-c1cccc(C(F)(F)F)c1 [Example 3, 4-{[5-[2-(4-Cyano-phenyl)-2H-pyrazol-3-yl]-4-methyl-2-oxo-3-(3-trifluoromethyl-phenyl)-2,3-dihydro-imidazole-1-carbonyl]-amino}-piperidine-1-carboxylic acid benzyl ester]
  pIC50: > 9.00

## Cc1c(-c2ccnn2-c2ccc(C#N)cc2)n(C(=O)NC2CCN(C(=O)C(F)(F)F)CC2)c(=O)n1-c1cccc(C(F)(F)F)c1 [Example 4, 5-[2-(4-Cyano-phenyl)-2H-pyrazol-3-yl]-4-methyl-2-oxo-3-(3-trifluoromethyl-phenyl)-2,3-dihydro-imidazole-1-carboxylic acid [1-(2,2,2-trifluoro-acetyl)-piperidin-4-yl]-amide]
  pIC50: > 9.00

## Cc1c(-c2ccnn2-c2ccc(C#N)cc2)n(C(=O)N[C@@H](C)c2ccncc2)c(=O)n1-c1cccc(C(F)(F)F)c1 [Example 5, 5-[2-(4-Cyano-phenyl)-2H-pyrazol-3-yl]-4-methyl-2-oxo-3-(3-trifluoromethyl-phenyl)-2,3-dihydro-imidazole-1-carboxylic acid ((S)-1-pyridin-4-yl-ethyl)-amide]
  pIC50: > 9.00

## Cc1c(-c2ccnn2-c2ccc(C#N)cc2)n(C(=O)N[C@H](C)c2ccncc2)c(=O)n1-c1cccc(C(F)(F)F)c1 [Example 6, 5-[2-(4-Cyano-phenyl)-2H-pyrazol-3-yl]-4-methyl-2-oxo-3-(3-trifluoromethyl-phenyl)-2,3-dihydro-imidazole-1-carboxylic acid ((R)-1-pyridin-4-yl-ethyl)-amide]
  pIC50: > 9.00

## COc1ccc(CN2CC3C(C2)C3NC(=O)n2c(-c3ccnn3-c3ccc(C#N)cc3)c(C)n(-c3cccc(C(F)(F)F)c3)c2=O)cc1 (centres unmarked) [Example 7, 5-[2-(4-Cyano-phenyl)-2H-pyrazol-3-yl]-4-methyl-2-oxo-3-(3-trifluoromethyl-phenyl)-2,3-dihydro-imidazole-1-carboxylic acid [3-(4-methoxy-benzyl)-3-aza-bicyclo[3.1.0]hex-6-yl]-amide]
  pIC50: > 9.00

## Cc1c(-c2ccnn2-c2ccc(C#N)cc2)n(C(=O)N[C@H]2CC[C@H](NC(=O)OC(C)(C)C)CC2)c(=O)n1-c1cccc(C(F)(F)F)c1 [Example 8, (Trans-4-{[5-[2-(4-cyano-phenyl)-2H-pyrazol-3-yl]-4-methyl-2-oxo-3-(3-trifluoromethyl-phenyl)-2,3-dihydro-imidazole-1-carbonyl]-amino}-cyclohexyl)-carbamic acid tert-butyl ester]
  pIC50: > 9.00

## Cc1c(-c2ccnn2-c2ccc(C#N)cc2)n(C(=O)N[C@H]2CC[C@H](N(C)C)CC2)c(=O)n1-c1cccc(C(F)(F)F)c1 [Example 9, 5-[2-(4-Cyano-phenyl)-2H-pyrazol-3-yl]-4-methyl-2-oxo-3-(3-trifluoromethyl-phenyl)-2,3-dihydro-imidazole-1-carboxylic acid (trans-4-dimethylamino-cyclohexyl)-amide]
  pIC50: > 9.00

## Cc1c(-c2ccnn2-c2ccc(C#N)cc2)n(C(=O)N[C@@H]2C[C@@H]3CN(C(=O)OC(C)(C)C)C[C@@H]3C2)c(=O)n1-c1cccc(C(F)(F)F)c1 [Example 10, (3aS,5R,6aR)-5-{[5-[2-(4-Cyano-phenyl)-2H-pyrazol-3-yl]-4-methyl-2-oxo-3-(3-trifluoromethyl-phenyl)-2,3-dihydro-imidazole-1-carbonyl]-amino}-hexahydro-cyclopenta[c]pyrrole-2-carboxylic acid tert-butyl ester]
  pIC50: > 9.00

## Cc1c(-c2ccnn2-c2ccc(C#N)cc2)n(C(=O)N[C@@H](C)C(=O)N2CCN(C)CC2)c(=O)n1-c1cccc(C(F)(F)F)c1 [Example 11, 5-[2-(4-Cyano-phenyl)-2H-pyrazol-3-yl]-4-methyl-2-oxo-3-(3-trifluoromethyl-phenyl)-2,3-dihydro-imidazole-1-carboxylic acid [(S)-1-methyl-2-(4-methyl-piperazin-1-yl)-2-oxo-ethyl]-amide]
  pIC50: > 9.00

## Cc1c(-c2ccnn2-c2ccc(C#N)cc2)n(C(=O)N[C@H]2C[C@@H]3CN(C(=O)OC(C)(C)C)C[C@@H]3C2)c(=O)n1-c1cccc(C(F)(F)F)c1 [Example 12, (3aR,5S,6aS)-5-{[5-[2-(4-Cyano-phenyl)-2H-pyrazol-3-yl]-4-methyl-2-oxo-3-(3-trifluoromethyl-phenyl)-2,3-dihydro-imidazole-1-carbonyl]-amino}-hexahydro-cyclopenta[c]pyrrole-2-carboxylic acid tert-butyl ester]
  pIC50: > 9.00

## Cc1c(-c2ccnn2-c2ccc(C#N)cc2)n(C(=O)N[C@@H](C)C(=O)NC2CCN(C)CC2)c(=O)n1-c1cccc(C(F)(F)F)c1 [Example 13, 5-[2-(4-Cyano-phenyl)-2H-pyrazol-3-yl]-4-methyl-2-oxo-3-(3-trifluoromethyl-phenyl)-2,3-dihydro-imidazole-1-carboxylic acid [(S)-1-(1-methyl-piperidin-4-ylcarbamoyl)-ethyl]-amide]
  pIC50: > 9.00

## Cc1c(-c2ccnn2-c2ccc(C#N)cc2)n(C(=O)N[C@@H](C)c2ccc(CN(C)C)cc2)c(=O)n1-c1cccc(C(F)(F)F)c1 [Example 14, 5-[2-(4-Cyano-phenyl)-2H-pyrazol-3-yl]-4-methyl-2-oxo-3-(3-trifluoromethyl-phenyl)-2,3-dihydro-imidazole-1-carboxylic acid [(S)-1-(4-dimethylaminomethyl-phenyl)-ethyl]-amide]
  pIC50: > 9.00

## Cc1c(-c2ccnn2-c2ccc(C#N)cc2)n(C(=O)NC2CCN(C(=O)CCN(C)C)CC2)c(=O)n1-c1cccc(C(F)(F)F)c1 [Example 15, 5-[2-(4-Cyano-phenyl)-2H-pyrazol-3-yl]-4-methyl-2-oxo-3-(3-trifluoromethyl-phenyl)-2,3-dihydro-imidazole-1-carboxylic acid [1-(3-dimethylamino-propionyl)-piperidin-4-yl]-amide]
  pIC50: > 9.00

## Cc1c(-c2ccnn2-c2ccc(C#N)cc2)n(C(=O)N[C@@H](C)c2ncc(CN(C)C)o2)c(=O)n1-c1cccc(C(F)(F)F)c1 [Example 16, 5-[2-(4-Cyano-phenyl)-2H-pyrazol-3-yl]-4-methyl-2-oxo-3-(3-trifluoromethyl-phenyl)-2,3-dihydro-imidazole-1-carboxylic acid [(S)-1-(5-dimethylaminomethyl-oxazol-2-yl)-ethyl]-amide]
  pIC50: > 9.00

## Cc1c(-c2ccnn2-c2ccc(C#N)cc2)n(C(=O)NC2CCN(C(=O)CN(C)C)CC2)c(=O)n1-c1cccc(C(F)(F)F)c1 [Example 17, 5-[2-(4-Cyano-phenyl)-2H-pyrazol-3-yl]-4-methyl-2-oxo-3-(3-trifluoromethyl-phenyl)-2,3-dihydro-imidazole-1-carboxylic acid [1-(2-dimethylamino-acetyl)-piperidin-4-yl]-amide]
  pIC50: > 9.00

## Cc1c(-c2ccnn2-c2ccc(C#N)cc2)n(C(=O)N[C@@H](C)C(=O)N(C)CC2CCN(C)CC2)c(=O)n1-c1cccc(C(F)(F)F)c1 [Example 18, 5-[2-(4-Cyano-phenyl)-2H-pyrazol-3-yl]-4-methyl-2-oxo-3-(3-trifluoromethyl-phenyl)-2,3-dihydro-imidazole-1-carboxylic acid {(S)-1-[methyl-(1-methyl-piperidin-4-ylmethyl)-carbamoyl]-ethyl}-amide]
  pIC50: > 9.00

## Cc1c(-c2ccnn2-c2ccc(C#N)cc2)n(C(=O)N[C@@H](C)C(=O)N2CCC(N(C)C)CC2)c(=O)n1-c1cccc(C(F)(F)F)c1 [Example 19, 5-[2-(4-Cyano-phenyl)-2H-pyrazol-3-yl]-4-methyl-2-oxo-3-(3-trifluoromethyl-phenyl)-2,3-dihydro-imidazole-1-carboxylic acid [(S)-2-(4-dimethylamino-piperidin-1-yl)-1-methyl-2-oxo-ethyl]-amide]
  pIC50: > 9.00
